In data set [1] the test system is LACV. In words: microbe, parasite or virus in culture. Type of data set: cell-based, La Crosse virus. To be noted: read-out: LACV EC50.
For data set [2], the system named is RVFV MP-12. Nature of the data set: microbe, parasite or virus in culture. Type of data set: cell-based, Rift Valley fever virus. To be noted: read-out: Estimated EC50.
The subject of data set [3] is RVFV strain MP-12. In words: microbe, parasite or virus in culture. Type of data set: cell-based, Rift Valley fever virus. The conditions noted are these: read-out: A549 EC50.
The target of data set [4] is T1, Human RNase H1 (Homo sapiens, UniProt O60930).
T1 construct: made in house; host or cells: E. coli
T1 sequence (O60930 1-286): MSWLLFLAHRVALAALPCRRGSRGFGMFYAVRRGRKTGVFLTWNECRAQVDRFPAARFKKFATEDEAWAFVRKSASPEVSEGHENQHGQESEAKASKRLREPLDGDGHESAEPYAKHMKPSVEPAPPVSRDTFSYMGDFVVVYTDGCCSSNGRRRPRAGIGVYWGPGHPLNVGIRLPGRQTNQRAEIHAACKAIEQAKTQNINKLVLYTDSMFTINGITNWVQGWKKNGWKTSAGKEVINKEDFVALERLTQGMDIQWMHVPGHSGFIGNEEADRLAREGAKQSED
In words: biochemical.

Data set [5] relates to RVFV strain MP-12. In words: microbe, parasite or virus in culture. Type of data set: cell-based, Rift Valley fever virus.
The test system of data set [6] is C. neoformans. In words: microbe, parasite or virus in culture. Type of data set: cell-based. The conditions noted are these: for MIC80: Cryptococcus neoformans, read-out: C. neoformans (MIC80, μM).
The test system of data set [7] is ZIKV. Nature of the data set: microbe, parasite or virus in culture. Type of data set: cell-based, Zika virus. The conditions noted are these: read-out: ZIKV EC50.
The subject of data set [8] is Vero cells.
Data set [9] concerns HepDES19.
Data set [10] deals with A549 cells.
Data set [11] in a line: in vitro. The conditions noted are these: African green monkey.
The mark [12] stands for this setting: read-out: Human RNase H1 (IC50).
Setting [13] is: La Crosse virus, Vero C1008, 24 h.
Where [14] appears, read: Rift Valley fever virus, A549, 24 h.
Setting [15] is: Rift Valley fever virus, Vero, 24 h.
Setting [16] is: Rift Valley fever virus, Vero, read-out: Vero EC50.

Structures are written as SMILES. Values after ≈ are worked out from the molar mass of the structure shown. Like-named read-outs stand apart in the source and are kept apart here.

Broadly, the EC50 is the concentration giving half of the maximal effect. As a reminder, the IC50 is the concentration needed to halve the response being measured. As to `CC(=O)c1c(C)cc(O)c(=O)c(O)c1Br` [Compound 320], the EC50 is above 120 µM in [1]; 2 µM in [2]; 90.3 µM in data set [3]; 34 µM in data set [5] (read-out: EC50); 34 µM in data set [5] (read-out: Vero EC50); above 120 µM in [7]. In addition, in data set [4] (setting [12]), the IC50 was 37 µM. The “C. neoformans (MIC80, μM)” value in data set [6] stood at 49 µM. In addition, the results for the CC50 in data set [8], in data set [9] and in [10] were above 120 µM, 49.5 µM and 154 µM, respectively.

For `O=C1C=CC(=O)c2ccccc21` [Compound 327], the EC50 in data set [1] is 12.7 µM; in [2], 2 µM; in data set [3] it was 19.6 µM; in data set [5] (read-out: EC50) it was 39.7 µM; in data set [5] (read-out: Vero EC50), 39.7 µM; in data set [7], above 120 µM. Further, the IC50 in data set [4] (setting [12]) came to 47 µM. In addition, the “C. neoformans (MIC80, μM)” value in [6] is 9.1 µM. The CC50 in data set [9] turned out to be 18.5 µM; in [10], 27.5 µM.

As for `COC(=O)c1c(C)cc(O)c(=O)c(O)c1Br` [Compound 335], the concentration giving a half-maximal response (EC50) in data set [1] is above 120 µM; in [2], 3 µM; in data set [3], above 120 µM; in [5] (read-out: EC50), 40.8 µM; in [5] (read-out: RVFV (EC50)) it was 40.8 µM; in data set [5] (read-out: Vero EC50), 40.8 µM. The half-maximal effective concentration (EC50) in data set [7] was above 120 µM. Besides, the concentration for half-maximal inhibition (IC50) in data set [4] (setting [12]) was 111 µM. In data set [6], the “C. neoformans (MIC80, μM)” value came to 50 µM. The CC50 in data set [8] is above 120 µM; in data set [10], 96.2 µM.

For the compound `Cc1cc(O)c(=O)c(O)cc1C(=O)N1CCCCC1` [Compound 390], the 50% effective concentration (EC50) in data set [1] is above 120 µM; in data set [2], 0.1 µM; in [3], 9.4 µM; in data set [5] (read-out: EC50) it was 11.9 µM; in [5] (read-out: Vero EC50) it was 11.9 µM; in data set [7], above 120 µM. The half-maximal inhibitory concentration (IC50) in data set [4] (setting [12]) turned out to be 106 µM. In addition, the “C. neoformans (MIC80, μM)” value in data set [6] turned out to be 11 µM. Further, the CC50 in data set [8] was above 120 µM; in data set [9], 29.8 µM; in data set [10], 224 µM.

Regarding `CC(=Nc1ccc(C(F)(F)F)cc1)c1c(C)cc(=O)n(O)c1O` [Compound 517], the half-maximal effective concentration (EC50) in data set [1] is above 120 µM; in data set [2], 13 µM; in data set [3], 95.8 µM; in [5] (read-out: Vero EC50), above 120 µM; in [7] it was above 120 µM. In addition, the concentration for half-maximal inhibition (IC50) in data set [4] (setting [12]) is 135 µM. Further, in [6], the “C. neoformans (MIC80, μM)” value is 24 µM. The CC50 is above 120 µM in data set [8], 91 µM in data set [9] and 71.8 µM in data set [10].

As for `CC(=Nc1ccccc1Cl)c1c(C)cc(=O)n(O)c1O` [Compound 668], the EC50 in [1] was above 120 µM; in data set [2], 11 µM; in data set [3] it was 35.7 µM; in [5] (read-out: EC50), 19.2 µM; in data set [5] (read-out: Vero EC50), 19.2 µM; in [7], above 120 µM. Moreover, the IC50 in data set [4] (setting [12]) came out at 165 µM. Besides, the CC50 in [8] was above 120 µM; in data set [9], 76.8 µM; in data set [10] it was 82 µM.

With `C/C(=N\c1ccc(Cl)c(Cl)c1)c1c(C)cc(O)n(O)c1=O` [Compound 670], the 50% effective concentration (EC50) in data set [1] (setting [13]) was above 120 µM; in [2] (Rift Valley fever virus, Vero) it was 10 µM; in data set [3] (setting [14]), 15.3 µM; in data set [5] (setting [15]) it was 14 µM; in data set [5] (setting [16]), 14 µM; in data set [7] (Zika virus, Vero C1008, 48 h), above 120 µM. Further, the CC50 in data set [11] (CC50) and in data set [8] (African green monkey) was above 120 µM throughout. Moreover, the half-inhibitory concentration (IC50) in data set [4] was determined as 356 µM. Moreover, the MIC80 in [6] is 69 µM (≈ 22.6 µg/mL).

As for `CCCCNC(=O)c1cc(O)c(=O)c(O)cc1C` [Compound 1039], the EC50 in data set [1] (setting [13]) was above 120 µM; in data set [2] (Rift Valley fever virus, Vero), 6 µM; in data set [3] (setting [14]), 15.5 µM; in data set [5] (setting [15]), 8.9 µM; in [5] (setting [16]), 8.9 µM; in data set [7] (Zika virus, Vero C1008, 48 h), above 120 µM. The CC50 in data set [11] (Vero CC50) and in [8] (African green monkey) was above 120 µM in each case. For the same compound, the half-maximal inhibitory concentration (IC50) in data set [4] turned out to be 209 µM. Moreover, the MIC80 in [6] turned out to be 12 µM (≈ 3.02 µg/mL).
